# Source: patent publication US20010044151A1, “Ligands for modulating the expression of exogenous genes via an ecdysone receptor complex” (priority 1998, published 2001)
# Key:
# [1] = biological target: CfEcR(CDEF)-GST and CfUSP-GST fusion proteins; test: Competitive 3H-ponasterone A binding assay, bacterial GST fusion proteins; parameters: species or system Choristoneura fumiferana; settings: bacterial CfEcR(CDEF)-GST/CfUSP-GST extracts, 3H-ponasterone A displacement
# From the text: Bacterial glutathion-S-transferase (GST) fusion proteins of the spruce budworm (Choristoneura fumiferana) EcR (CfEcR), containing CDEF domains only, and ultraspiracle protein (CfUSP) were also used in radioligand displacement assays. cDNA encoding the CDEF domains of CfEcR were constructed following PCR amplification using primers that contain BamH1 and EcoRI sites (Perera S C, M Sundaram, Krell P J, Retnakaran A, Dhadialla T S, S R Palli, 1999 Arch. Insect Biochem. Physiol. 41 In Press). The PCR produce was digested with BamHI and EcoRI and cloned into pGEX-3X vector obtained from Pharmacia Biotech. CfUSP coding region was amplified using primers that contain BamH1 and EcoRI sites and cloned into to pGEX-2T vector obtained from Pharmacia Biotech. E. coli transformed with each of the two vectors were grown and induced to produce the fusion proteins as detailed in the Pharmacia Biotech GST-technical bulletin.
# The concentrations of competitors that inhibited 50% of tritiated ponasterone A binding (IC50) was determined by incubating Kc or Plodia nuclear extracts or extracts of bacteria producing CfEcR(CDEF)-GST and CfUSP-GST fusions proteins with ^3H-ponasterone A (66,000 dpm per reaction) in the presence of a range of concentrations (0.1 nM to 10 μM) of test compounds. In the case of binding reactions using bacterial fusion proteins, 20 or one μl extract of bacteria producing CfEcR(CDEF)-GST or CfUSP-GST fusion proteins, respectively, were included per binding reaction. The assay conditions and determination of total and non-specific binding was as described above. The volume of competitor in solvent, like that for 20E or solvent alone, was kept at 1% of total reaction volume by using a 100 fold concentrated stock solution (i.e. a 100 fold dilution of stock solutions). The remainder of the assay was as described above. Each reaction was carried out in duplicate per concentration per test compound. […]
# [2] = tested on: Spodoptera exigua; test: Translaminar movement into cotton leaves, mortality of neonate beet armyworm larvae; assay type: in vivo; settings: versus CE-1
# Experimental: A study was conducted to evaluate translaminar movement of two compounds into cotton leaves using neonate beet armyworm larvae, Spodoptera exigua, as the model system.
# Two treatments were evaluated: emulsifiable concentrates of CE-1 and Ligand 3 (5% and 19%, respectively), at a concentration of 100 μg/ml to simulate spray tank concentrations. These treatments were then compared with plants treated with a chemical standard known to have excellent translaminar movement (emamectin benzoate, 0.16% EC [20 μg/ml], Merck & Co.) and with nontreated plants.
# Four-week-old cotton, Gossypium hirsutum L. ev. Stoneville, plants were treated with each treatment by painting the top surface of a single replicate leaf/plant with a corresponding treatment. Plants were held in a controlled environment glasshouse maintained at 27° C. until needed. Residual effectiveness was evaluated by challenging treated and nontreated foliage with neonate beet armyworm larvae, Spodoptera exigua (Hubner), on 3 dates: 1, 7 and 14 days after treatment (DAT). On each sample date, the single treated leaf/plant was excised from each of five replicate plants per treatment. […] Mortality of larvae was recorded 4 days after infestation. […]
# Percentage mortality data were transformed to the arcsine of the square-root and then analyzed by ANOVA using JMP (Ver. 3.2.1). […]
structure (smiles),measurement,setting,value
COc1cccc(C(=O)NN(C(=O)c2cc(C)cc(C)c2)C(C)(C)C)c1C [Ligand 3],Bacterial CfECR log(1/IC50),[1],8.76
same,Effectiveness at killing S. exigua larvae from translaminar movement (comparison in words),[2],significantly more effective than CE-1
